Measurements published in patent US20030157062A1, “Method for exterminating termites” (priority 2000, published 2003).

Tested on: Coptotemes formosanus
Assay: Indoor testing of termiticidal effect of treated soil (Japan Wood Preserving Association standard number 13, 1992)
Format: in vivo
Experimental: The following tests (test numbers 1 to 16) were carried out based on testing methods and qualitative standards (I) for termiticidal effects of termiticide for soil treating (Japan Wood Preserving Association standard number 13, 1992). In the tests using entomopathogenic nematodes, operation of diffusive volatilization was not carried out.
The bottom portions of these two glass bottles are connected with a glass tube (3) of 15 mm in diameter and 100 mm in length.
In one of the glass bottles of the testing container, about 60 g of a non-treated soil (5) having an adjusted moisture content of about 25% is placed, and in the other glass bottle, about 3 g of Japanese red pine wood blocks are placed, and in the central 50 mm portion of the glass tube, a treated soil for testing (6) is placed.
In the glass bottle containing a non-treated soil, Coptotemes formosanus taken out from a nest was placed, and the upper portions of the glass bottles were covered with aluminum foil. Cumulative mortality rates after 0, 3, 5, 7, 10 and 14 days, respectively, were examined. […]

[1] = 10 ppm of insect-growth regulator singly in treated soil, 0 days elapsed
[2] = 10 ppm of insect-growth regulator singly in treated soil, 3 days elapsed
[3] = 10 ppm of insect-growth regulator singly in treated soil, 5 days elapsed
[4] = 10 ppm of insect-growth regulator singly in treated soil, 7 days elapsed
[5] = 10 ppm of insect-growth regulator singly in treated soil, 10 days elapsed
[6] = 10 ppm of insect-growth regulator singly in treated soil, 14 days elapsed
[7] = 20 ppm of insect-growth regulator singly in treated soil, 0 days elapsed
[8] = 20 ppm of insect-growth regulator singly in treated soil, 3 days elapsed
[9] = 20 ppm of insect-growth regulator singly in treated soil, 5 days elapsed
[10] = 20 ppm of insect-growth regulator singly in treated soil, 7 days elapsed
[11] = 50 ppm of insect-growth regulator singly in treated soil, 0 days elapsed
[12] = 50 ppm of insect-growth regulator singly in treated soil, 3 days elapsed
[13] = 50 ppm of insect-growth regulator singly in treated soil, 5 days elapsed
[14] = 50 ppm of insect-growth regulator singly in treated soil, 7 days elapsed
[15] = 20 ppm of insect-growth regulator singly in treated soil, 10 days elapsed
[16] = 20 ppm of insect-growth regulator singly in treated soil, 14 days elapsed
[17] = 50 ppm of insect-growth regulator singly in treated soil, 10 days elapsed
[18] = 50 ppm of insect-growth regulator singly in treated soil, 14 days elapsed

Compound: O=C(NC(=O)c1c(F)cccc1F)Nc1ccc(OC(F)(F)C(F)OC(F)(F)F)c(Cl)c1 (centres unmarked) [novaluron, N-[[[3-chloro-4-(1,1,2-trifluoro-2-trifluoromethoxyethoxy)phenyl]amino]carbonyl]-2,6-difluorobenzamide]
- Cumulative mortality rate (%) after a lapse of days [1]: 0%
- Cumulative mortality rate (%) after a lapse of days [2]: 20%
- Cumulative mortality rate (%) after a lapse of days [3]: 30%
- Cumulative mortality rate (%) after a lapse of days [4]: 35%
- Cumulative mortality rate (%) after a lapse of days [5]: 40%
- Cumulative mortality rate (%) after a lapse of days [6]: 80%
- Cumulative mortality rate (%) after a lapse of days [7]: 0%
- Cumulative mortality rate (%) after a lapse of days [8]: 30%
- Cumulative mortality rate (%) after a lapse of days [9]: 45%
- Cumulative mortality rate (%) after a lapse of days [10]: 100%
- Cumulative mortality rate (%) after a lapse of days [11]: 0%
- Cumulative mortality rate (%) after a lapse of days [12]: 40%
- Cumulative mortality rate (%) after a lapse of days [13]: 60%
- Cumulative mortality rate (%) after a lapse of days [14]: 100%

Compound: O=C(NC(=O)c1c(F)cccc1F)Nc1cc(Cl)c(F)c(Cl)c1F [Teflubenzuron, N-[[(3,5-dichloro-2,4-difluorophenyl)amino]carbonyl]-2,6-difluorobenzamide]
- Cumulative mortality rate (%) after a lapse of days [1]: 0%
- Cumulative mortality rate (%) after a lapse of days [2]: 20%
- Cumulative mortality rate (%) after a lapse of days [3]: 25%
- Cumulative mortality rate (%) after a lapse of days [4]: 30%
- Cumulative mortality rate (%) after a lapse of days [5]: 30%
- Cumulative mortality rate (%) after a lapse of days [6]: 55%
- Cumulative mortality rate (%) after a lapse of days [7]: 0%
- Cumulative mortality rate (%) after a lapse of days [8]: 30%
- Cumulative mortality rate (%) after a lapse of days [9]: 45%
- Cumulative mortality rate (%) after a lapse of days [10]: 50%
- Cumulative mortality rate (%) after a lapse of days [15]: 60%
- Cumulative mortality rate (%) after a lapse of days [16]: 70%
- Cumulative mortality rate (%) after a lapse of days [11]: 0%
- Cumulative mortality rate (%) after a lapse of days [12]: 40%
- Cumulative mortality rate (%) after a lapse of days [13]: 60%
- Cumulative mortality rate (%) after a lapse of days [14]: 70%
- Cumulative mortality rate (%) after a lapse of days [17]: 80%
- Cumulative mortality rate (%) after a lapse of days [18]: 90%

Compound: O=C(NC(=O)c1c(F)cccc1F)Nc1ccc(Cl)cc1 [Diflubenzuron, N-[[(4-chlorophenyl)amino]carbonyl]-2,6-difluorobenzamide]
- Cumulative mortality rate (%) after a lapse of days [1]: 0%
- Cumulative mortality rate (%) after a lapse of days [2]: 10%
- Cumulative mortality rate (%) after a lapse of days [3]: 15%
- Cumulative mortality rate (%) after a lapse of days [4]: 20%
- Cumulative mortality rate (%) after a lapse of days [5]: 40%
- Cumulative mortality rate (%) after a lapse of days [6]: 50%
- Cumulative mortality rate (%) after a lapse of days [7]: 0%
- Cumulative mortality rate (%) after a lapse of days [8]: 25%
- Cumulative mortality rate (%) after a lapse of days [9]: 35%
- Cumulative mortality rate (%) after a lapse of days [10]: 40%
- Cumulative mortality rate (%) after a lapse of days [15]: 50%
- Cumulative mortality rate (%) after a lapse of days [16]: 60%
- Cumulative mortality rate (%) after a lapse of days [11]: 0%
- Cumulative mortality rate (%) after a lapse of days [12]: 35%
- Cumulative mortality rate (%) after a lapse of days [13]: 45%
- Cumulative mortality rate (%) after a lapse of days [14]: 50%
- Cumulative mortality rate (%) after a lapse of days [17]: 55%
- Cumulative mortality rate (%) after a lapse of days [18]: 70%
